Measurements: ChEMBL document CHEMBL5316306 (J Med Chem, 2023)
Calls of active or inactive are those of the source. No cut-off for these calls is given here.

Experiments:
[1] = molecular target: T1, Proteasome Macropain subunit MB1 (Homo sapiens, UniProt P28074); test: Inhibition of human 20s constitutive proteasome beta-5c
T1 sequence (P28074 whole entry): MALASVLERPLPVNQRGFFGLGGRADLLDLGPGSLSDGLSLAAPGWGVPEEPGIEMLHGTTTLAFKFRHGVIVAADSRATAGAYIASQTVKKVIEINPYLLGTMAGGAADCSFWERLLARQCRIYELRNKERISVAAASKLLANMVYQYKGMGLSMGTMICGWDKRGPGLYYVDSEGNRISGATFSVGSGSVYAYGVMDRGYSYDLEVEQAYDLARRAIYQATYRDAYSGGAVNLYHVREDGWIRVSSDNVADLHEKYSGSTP

[2] = molecular target: T2, Proteasome subunit beta type-8 (Homo sapiens, UniProt P28062); test: Inhibition of human 20s immunoproteasome beta-5i subunit
T2 sequence (P28062 whole entry): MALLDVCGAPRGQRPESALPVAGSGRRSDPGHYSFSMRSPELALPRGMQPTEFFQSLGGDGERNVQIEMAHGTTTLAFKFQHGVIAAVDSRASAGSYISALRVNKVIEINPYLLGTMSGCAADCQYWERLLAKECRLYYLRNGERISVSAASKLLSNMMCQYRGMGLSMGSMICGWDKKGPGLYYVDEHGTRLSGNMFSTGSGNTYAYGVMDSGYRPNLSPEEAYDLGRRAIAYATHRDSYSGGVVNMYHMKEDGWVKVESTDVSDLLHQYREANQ

PBMC = test: Cytotoxicity against human PBMC cells expressing 20s immunoproteasome beta-5i after 72 hrs by celltitre-glo assay; format: functional, cell-based
[3] = molecular target: T3, Proteasome subunit beta type-9 (Homo sapiens, UniProt P28065); test: Inhibition of human 20s immunoproteasome beta-1i subunit
T3 sequence (P28065 whole entry): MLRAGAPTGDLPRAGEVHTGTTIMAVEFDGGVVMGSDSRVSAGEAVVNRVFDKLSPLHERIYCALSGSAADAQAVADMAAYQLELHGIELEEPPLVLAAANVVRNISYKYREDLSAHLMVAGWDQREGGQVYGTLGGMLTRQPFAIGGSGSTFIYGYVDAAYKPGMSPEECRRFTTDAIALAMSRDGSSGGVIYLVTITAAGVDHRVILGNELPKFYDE

[4] = molecular target: T4, Proteasome subunit beta type-10 (Homo sapiens, UniProt P40306); test: Inhibition of human 20s immunoproteasome beta-2i subunit
T4 sequence (P40306 whole entry): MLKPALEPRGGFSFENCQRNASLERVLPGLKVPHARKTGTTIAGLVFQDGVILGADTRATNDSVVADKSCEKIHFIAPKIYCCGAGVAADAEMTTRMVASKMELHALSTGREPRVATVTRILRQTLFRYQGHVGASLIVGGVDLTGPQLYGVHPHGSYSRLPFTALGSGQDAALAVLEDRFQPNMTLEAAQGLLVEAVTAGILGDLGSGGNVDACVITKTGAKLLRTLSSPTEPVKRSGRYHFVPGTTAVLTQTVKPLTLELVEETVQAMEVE

[5] = molecular target: T5, Proteasome Macropain subunit MB1 (Homo sapiens) (UniProt P28074); test: Inhibition of human 20s constitutive proteasome beta-5c assessed as restoration of enzyme activity at 2 nM incubated for 1 hr followed by compound removal by dialysis measured after 1 hr
T5 sequence (whole entry): T1 sequence (P28074 whole entry)

[6] = molecular target: T5, Proteasome Macropain subunit MB1 (Homo sapiens); test: Time dependent inhibition of human 20s constitutive proteasome beta-5c assessed as restoration of enzyme activity at 10 nM using suc-LLVY-AMC as substrate incubated upto 90 mins
[7] = molecular target: T6, Proteasome subunit beta type-8 (Homo sapiens) (UniProt P28062); test: Time dependent inhibition of human 20s immunoproteasome beta-5i subunit assessed as restoration of enzyme activity at 250 nM using Ac-ANW-AMC as substrate incubated upto 90 mins
T6 sequence (whole entry): T2 sequence (P28062 whole entry)

[8] = molecular target: Procathepsin L (Homo sapiens) (UniProt P07711); test: Inhibition of human cathepsin L at 100 uM
Chain of Procathepsin L (Homo sapiens) (P07711 114-333 limits assumed): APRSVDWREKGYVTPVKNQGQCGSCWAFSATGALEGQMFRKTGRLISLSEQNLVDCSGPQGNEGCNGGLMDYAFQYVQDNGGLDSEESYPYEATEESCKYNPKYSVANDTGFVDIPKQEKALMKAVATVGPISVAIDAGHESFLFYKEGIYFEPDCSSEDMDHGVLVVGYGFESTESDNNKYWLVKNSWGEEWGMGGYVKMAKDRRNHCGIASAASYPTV

Trypsin (Homo sapiens) = Trypsin (Homo sapiens) (UniProt P07477+P07478+P35030); test: Inhibition of human trypsin at 33.3 uM; format: protein assay
[9] = molecular target: Chymotrypsin (Homo sapiens) (UniProt Q99895+P17538+P40313+Q6GPI1); test: Inhibition of human chymotrypsin at 11.1 uM; format: protein assay
[10] = molecular target: T5, Proteasome Macropain subunit MB1 (Homo sapiens); test: Inhibition of 20s constitutive proteasome beta-5c in human HepG2 cells incubated by proteasome glo assay kit analysis; format: cell-based; conditions: time <= 1.0 hrs
[11] = molecular target: T6, Proteasome subunit beta type-8 (Homo sapiens); test: Inhibition of 20s immunoproteasome beta-5i in human PBMC cells incubated by proteasome glo assay kit analysis; format: cell-based; conditions: time <= 1.0 hrs
HepG2 = test: Cytotoxicity against human HepG2 cells after 72 hrs by celltitre-glo assay; format: functional, cell-based; conditions: HepG2, 72 h
MM1.S [12] = test: Cytotoxicity against human MM1.S cells after 72 hrs by celltitre-glo assay; format: functional, cell-based
RPMI-8226 [13] = test: Cytotoxicity against human RPMI-8226 cells after 72 hrs by celltitre-glo assay; format: functional, cell-based; conditions: RPMI-8226, 72 h
MM1.S [14] = test: Synergistic cytotoxic activity against human MM1.S cells after 72 hrs in presence of 0.02 uM of (S)-N5-(tert-butyl)-N1-((S)-1-(((4-fluoronaphthalen-1-yl)methyl)amino)-3-methoxy-1-oxopropan-2-yl)-2-((4-methylphenyl)sulfonamido)pentanediamide by celltitre-glo assay; format: functional, cell-based
RPMI-8226 [15] = test: Synergistic cytotoxic activity against human RPMI-8226 cells after 72 hrs in presence of 0.25 uM of (S)-N5-(tert-butyl)-N1-((S)-1-(((4-fluoronaphthalen-1-yl)methyl)amino)-3-methoxy-1-oxopropan-2-yl)-2-((4-methylphenyl)sulfonamido)pentanediamide by celltitre-glo assay; format: functional, cell-based; conditions: RPMI-8226, 72 h
MM1.S [16] = test: Synergistic cytotoxic activity against human MM1.S cells after 72 hrs in presence of 0.01 uM of (S)-(3-((2-(2-(1H-indol-3-yl)-2-oxoacetamido)-4-(tert-butylamino)-4-oxobutanamido)methyl)phenyl)boronic acid by celltitre-glo assay; format: functional, cell-based
RPMI-8226 [17] = test: Synergistic cytotoxic activity against human RPMI-8226 cells after 72 hrs in presence of 0.5 uM of (S)-(3-((2-(2-(1H-indol-3-yl)-2-oxoacetamido)-4-(tert-butylamino)-4-oxobutanamido)methyl)phenyl)boronic acid by celltitre-glo assay; format: functional, cell-based
[18] = molecular target: T5, Proteasome Macropain subunit MB1 (Homo sapiens); test: Inhibition of 20s constitutive proteasome beta-5c (unknown origin) assessed as recovery half life time
[19] = molecular target: T5, Proteasome Macropain subunit MB1 (Homo sapiens); test: Time dependent inhibition of human 20s constitutive proteasome beta-5c assessed as restoration of enzyme activity at 10 nM using suc-LLVY-AMC as substrate; conditions: time <= 90.0 min, TDE = time-dependent effect
[20] = molecular target: T6, Proteasome subunit beta type-8 (Homo sapiens); conditions: dose 250.0 nM, time <= 90.0 min
[21] = molecular target: T2, Proteasome subunit beta type-8; test: Inhibition of 20s immunoproteasome beta-5i subunit (unknown origin)

CC(C)(C)NC(=O)C[C@H](NC(=O)c1cnccn1)C(=O)NCc1cccc(B(O)O)c1
IC50 [1]: > 100 µM | IC50 [2]: > 100 µM

CC(C)(C)NC(=O)C[C@H](NC(=O)Cc1c[nH]c2ccccc12)C(=O)NCc1cccc(B(O)O)c1
IC50 [1]: 0.7 µM | IC50 [2]: 69.2 µM

CC(C)(C)NC(=O)C[C@H](NC(=O)C(=O)c1c[nH]c2ccccc12)C(=O)NCc1cccc(B(O)O)c1
EC50 (PBMC): > 50 µM | IC50 [3]: > 33.3 µM | IC50 [4]: > 33.3 µM | IC50 [1]: 0.01 µM | IC50 [2]: 7.1 µM | inhibition [5]: inactive | TDI [6]: inactive | TDI [7]: inactive | inhibition [8]: inactive | inhibition (Trypsin (Homo sapiens)): inactive | inhibition [9]: inactive | inhibition [10]: Dose-Dependent Effect | inhibition [11]: Dose-Dependent Effect | EC50 (HepG2): 3.2 µM | EC50 (MM1.S [12]): 0.057 µM | EC50 (RPMI-8226 [13]): 1.67 µM | EC50 (MM1.S [14]): 0.01 µM | EC50 (RPMI-8226 [15]): 0.173 µM

CC(C)(C)NC(=O)C[C@H](NC(=O)c1ccccc1)C(=O)NCc1cccc(B(O)O)c1
IC50 [1]: 3.8 µM | IC50 [2]: > 100 µM

CC(C)(C)NC(=O)C[C@H](NC(=O)CCc1ccc(F)cc1)C(=O)NCc1cccc(B(O)O)c1
IC50 [1]: 0.75 µM | IC50 [2]: 47.9 µM

COC[C@H](NC(=O)[C@H](CCC(=O)NC(C)(C)C)NS(=O)(=O)c1ccc(C)cc1)C(=O)NCc1ccc(F)c2ccccc12
EC50 (MM1.S [12]): 0.125 µM | EC50 (RPMI-8226 [13]): 0.69 µM | EC50 (MM1.S [16]): 0.125 µM | EC50 (RPMI-8226 [17]): 0.006 µM

Cc1ccc(S(=O)(=O)N[C@@H](CC(=O)NC(C)(C)C)C(=O)NCc2cccc(C(F)(F)F)c2)cc1
IC50 [1]: > 100 µM | IC50 [2]: > 100 µM

CC(C)C[C@H](NC(=O)[C@H](Cc1ccccc1)NC(=O)c1cnccn1)B(O)O [BORTEZOMIB]
TIME [18]: 1.83 h | TDI [19]: Tde | EC50 (HepG2): 0.013 µM | EC50 (MM1.S [12]): 0.002 µM | EC50 (RPMI-8226 [13]): 0.004 µM | TDI [20]: Tde

Cc1ccc(S(=O)(=O)N[C@@H](CC(=O)NC(C)(C)C)C(=O)NCc2ccc(B(O)O)cc2)cc1
IC50 [1]: > 100 µM | IC50 [2]: > 100 µM

Cc1ccc(S(=O)(=O)N[C@@H](CC(=O)NC(C)(C)C)C(=O)NCc2ccc(B(O)O)s2)cc1
IC50 [1]: > 100 µM | IC50 [2]: > 100 µM

Cc1cc(C(=O)N[C@@H](CC(=O)NC(C)(C)C)C(=O)NCc2cccc(B(O)O)c2)no1
IC50 [1]: 5.9 µM | IC50 [2]: > 100 µM

Cc1ccc(S(=O)(=O)N[C@@H](CC(=O)NC(C)(C)C)C(=O)NCc2cccc(O)c2)cc1
IC50 [1]: > 100 µM | IC50 [2]: > 100 µM

CC(C)C[C@H](NC(=O)CN1CCOCC1)C(=O)N[C@@H](C[C@H]1CC[C@H](C2CCCCC2)CC1)C(=O)N[C@@H](Cc1ccccc1)C(=O)N[C@@H](C)C(=O)[C@@]1(C)CO1
IC50 [21]: 22.8 µM

COC[C@H](NC(=O)C(=O)c1c[nH]c2ccccc12)C(=O)NCc1cccc(B(O)O)c1
IC50 [1]: 3 µM | IC50 [2]: 45.2 µM

Cc1ccc(S(=O)(=O)N[C@@H](CC(=O)NC(C)(C)C)C(=O)NCc2cccc(F)c2)cc1
IC50 [1]: > 100 µM | IC50 [2]: > 100 µM

Cc1ccc(S(=O)(=O)N[C@@H](CC(=O)NC(C)(C)C)C(=O)Nc2cccc(B(O)O)c2)cc1
IC50 [1]: > 100 µM | IC50 [2]: > 100 µM
